Experimental findings from ChEMBL document CHEMBL1132044, “Synthesis and in vitro and in vivo evaluation of the 2-(6'methoxy-3',4'-dihydro-1'-naphtyl)-4H-3,1-benzoxazin-4-one as a new potent substrate inhibitor of human leukocyte elastase” (Bioorg Med Chem Lett, 1999) are described below.

The target of test [1] is T1, Neutrophil elastase (Homo sapiens) (UniProt P08246).
T1 sequence (whole entry): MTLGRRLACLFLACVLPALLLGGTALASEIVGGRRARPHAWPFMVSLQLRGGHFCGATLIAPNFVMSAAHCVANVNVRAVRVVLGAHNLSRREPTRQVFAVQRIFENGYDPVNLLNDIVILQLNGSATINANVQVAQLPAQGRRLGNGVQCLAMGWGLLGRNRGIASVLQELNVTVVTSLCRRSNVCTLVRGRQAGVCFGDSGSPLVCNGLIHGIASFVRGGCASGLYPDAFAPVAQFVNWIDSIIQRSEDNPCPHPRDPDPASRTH
As to the kind of experiment: In vitro inhibitory activity against human leukocyte elastase (HLE), at a concentration of 15 uM.

Test [2] has as its target T1, Neutrophil elastase (Homo sapiens). As to the kind of experiment: In vitro inhibitory activity against human leukocyte elastase (HLE), at a concentration of 1.5 uM.
Test [3] shares this target. As to the kind of experiment: In vitro inhibitory activity against human leukocyte elastase (HLE), at a concentration of 75 uM.
The target of the next test is T2, Neutrophil elastase (Homo sapiens, UniProt P08246).
T2 sequence (P08246 whole entry): T1 sequence (whole entry)
Kind of test: In vitro inhibitory activity against human leukocyte elastase (HLE).

In general, inhibition refers to the change of the read-out against control, counted positive when it falls. High values mean a response far below the control, low ones a response near the control. What is called IC50 is the concentration that inhibits the measured activity by half. Low readings indicate greater potency, high ones weaker potency.

In the case of `CCOC(=O)C1CCC(c2nc3ccccc3c(=O)o2)=CC1C` (centres undefined), the inhibition in test [1] amounted to 12%; in test [2], 6%; in test [3], 20.8%.
For the compound `O=c1oc(-c2ccccc2)nc2ccccc12`, the IC50 against Neutrophil elastase stood at 17 µM. Further, the inhibition was determined as 45.7% in test [1], 16.2% in test [2] and 76% in test [3].
Taken in the same sequence, the figures for `O=c1oc(/C2=C/CCCCCC2)nc2ccccc12` were 7 µM, 64.5%, 23% and 87%.
The like results for `COc1ccc2c(c1)CCC=C2c1nc2ccccc2c(=O)o1` were, in that order, 0.61 µM, 92.8%, 69.9% and 99.6%.
The like results for `O=c1oc(-c2ccco2)nc2ccccc12` were, in that order, 5.5 µM, 65%, 22.6% and 88.7%.
